Like-named read-outs stand apart in the source and are kept apart here.
What was measured:
[1] = Visual appearance of Flu-Na solutions at different pH values; format: physicochemical; conditions: 1 mg/mL, pH 4.85
Description: Solutions were prepared at a concentration of 1 mg/mL, and visual appearance was recorded after pH adjustment.

[2] = test system: porcine nasal mucosa; test: Flu-Na permeability across IPA-damaged porcine nasal mucosa (Franz diffusion cells); format: in vitro ADME, Sus scrofa domesticus
Description: To systematically investigate this issue, nasal mucosa tissues harvested from the same pig were immersed in 10%, 50%, or 100% IPA for 30 min to induce graded levels of chemical damage. A parallel control sample was incubated in DPBS under identical conditions. Flu-Na permeability was then measured as an indicator of mucosal integrity. This experiment was independently repeated in tissues from three different pigs to ensure reproducibility. Representative images of nasal mucosa following IPA-induced damage are shown in Figure 9, and the corresponding Papp values, normalized to a standardized mucosal thickness of 0.80 mm, are presented in Figure 10.
Tissues obtained from the same pig were used to evaluate the effects of different IPA concentrations and the DPBS control within a single experimental set. To ensure reproducibility, the entire experiment was independently repeated using tissues from three different pigs.
For each experimental set, three pieces of nasal mucosa tissue from the same pig were submerged in 3 mL of IPA at concentrations of 10%, 50%, or 100% for 30 min to induce graded levels of epithelial damage. A parallel control tissue sample from the same pig was submerged in 3 mL of DPBS under identical conditions. Following exposure, all tissues were thoroughly rinsed with DPBS to remove residual solvent and were immediately mounted in Franz diffusion cells for permeability testing.
Nasal mucosal permeability was evaluated using a Phoenix™ DB-6 Franz diffusion system (Teledyne Hanson Research, Los Angeles, CA, USA), equipped with a diffusion area of 1.0 cm^2 and a receptor volume of 10 mL. The nasal mucosa was mounted between the donor and receptor chambers, with the epithelial side facing the donor compartment. […]
The Flu-Na loading solution was prepared at a fixed concentration of 1 mg/mL by dissolving 25 mg of Flu-Na in 25 mL of DPBS using volumetric flasks. […] The supernatants were collected for microplate reader (SpectraMax iD5, Molecular Devices, San Jose, CA, USA) analysis.

[3] = Ex vivo permeation across porcine nasal mucosa in Franz diffusion cells; format: in vitro ADME, Sus scrofa domesticus; conditions: pig
Description: (§1) Nasal mucosa tissues were carefully dissected from the lower turbinates within the nasal cavity. Immediately after excision, the tissues were immersed in chilled DPBS to prevent desiccation and to preserve structural integrity. The samples were then cut into appropriate sizes, and mucosal thickness was measured using an electronic digital caliper (Fisher Scientific, Waltham, MA, USA) as described in previous work. […] The nasal mucosa was mounted between the donor and receptor chambers, with the epithelial side facing the donor compartment. DPBS was used as the receptor medium and maintained at 37 ± 0.5 °C under continuous stirring at 600 rpm. At predetermined time points (0.5, 1, 2, 3, 4, 5, 6, 7, and 8 h), 0.5 mL of sample was withdrawn from the receptor compartment and immediately replaced with fresh DPBS to maintain sink conditions. The melatonin loading solution was prepared by dissolving an appropriate amount of melatonin powder in 5 mL of DPBS, stirring for 15 min, and filtering through a 0.2 µm nylon membrane filter (Fisher Scientific, Waltham, MA, USA). […] At the start of the experiment, 0.5 mL of melatonin loading solution was added to the donor compartment. Receptor samples collected at each time point were mixed with an equal volume of acetonitrile, vortexed, and centrifuged (AccuSpin Micro17, Fisher Scientific, Waltham, MA, USA) at 10,000× g for 20 min. The resulting supernatants were collected for HPLC analysis. […] Receptor samples collected at each time point were centrifuged (AccuSpin Micro17, Fisher Scientific, Waltham, MA, USA) directly at 10,000× g for 20 min. The supernatants were collected for microplate reader (SpectraMax iD5, Molecular Devices, San Jose, CA, USA) analysis. The permeation curve is reported as percentage of drug permeated and was computationally corrected for the withdrawn volume using an Excel (Microsoft, Redmond, WA, USA) add-in program DDSolver 1.0 [53]. Papp were calculated as described in previous work. Numerical simulations were performed using COMSOL Multiphysics® version 6.2 (COMSOL Inc., Burlington, MA, USA), following the methodology established in our previous study. The simulations were based on Fick’s law of diffusion, describing solute concentration changes over time and space within a defined three-dimensional geometry. The “Transport of Diluted Species” physics interface was employed to simulate drug diffusion dynamics, while adsorption effects were incorporated to account for drug retention within the nasal mucosa. […] To address this, the simulation model was first fitted to experimentally obtained permeation profiles to extract key transport parameters. These parameters were subsequently used to normalize each permeation curve to a standardized mucosal thickness of 0.80 mm. Thickness correction minimized the impact of variability and enabled more accurate and consistent comparisons across experimental conditions.

[4] = parameters: method as in PMID 9232516; conditions: reported in the literature; cited from earlier work
[5] = Shake-flask log D (n-octanol/DPBS); format: physicochemical; conditions: pH increased from 6.0 to 10.0
Description: Equal volumes of n-octanol and DPBS were mixed and shaken at room temperature for 24 h using an incubator shaker (Lab-Line Instruments, Inc., Melrose Park, IL, USA) to achieve mutual saturation. The pre-saturated n-octanol and DPBS phases were then carefully transferred into separate centrifuge tubes and centrifuged (Centrifuge 5430 R, Eppendorf AG, Hamburg, Germany) at 5000× g for 20 min to ensure complete phase separation.
Flu-Na solutions were prepared at a final concentration of 1 mg/mL by dissolving Flu-Na in pre-saturated DPBS, followed by pH adjustment to approximately 6, 7, 8, 9, and 10 using sodium hydroxide or hydrochloric acid solutions. […]
The concentrations of Flu-Na in both phases were measured at 492 nm using the microplate reader (SpectraMax iD5, Molecular Devices, San Jose, CA, USA). Calibration curve standards were prepared using DPBS adjusted to the corresponding pH values to ensure accurate quantification under each condition. The log D was calculated as the base-10 logarithm of the concentration ratio between the n-octanol phase and the aqueous phase.

[6] = parameters: method as in doi:10.2343/geochemj.2.0226; conditions: cited from earlier work
[7] = test system: porcine nasal mucosa; test: Ex vivo permeation across porcine nasal mucosa in Franz diffusion cells; format: in vitro ADME, Sus scrofa domesticus
Description: as §1

[8] = different-pig (inter-individual) group, n = 3, simulation-based normalization, read-out: mean Papp after normalization to standardized thickness of 0.80 mm
[9] = same-pig (intra-individual) group, n = 3, simulation-based normalization, read-out: mean Papp after normalization to standardized thickness of 0.80 mm

| Structure (SMILES) | visual appearance of solution [1] | Flu-Na permeability (Papp) vs DPBS negative control, preliminary study ([2]; 10% IPA as positive control, groups from different donor pigs, unpublished data) | trend of Papp values with IPA concentration ([2]; escalating IPA concentrations (10%, 50%, and 100%), 30 min) | Flu-Na permeability (Papp) vs DPBS negative control ([2]; mucosa immersed in 10% IPA for 30 min, same pig, normalized to 0.80 mm, three pigs) | Papp at 8 h [3, 8] [×10⁻⁶ cm/s] | Papp at 8 h [3, 9] [×10⁻⁶ cm/s] | log P [4] | log D (shake-flask), pH dependency [5] | log P ([6]; pH 4.29) | log P ([6]; pH 7.5) | Papp at 8 h ([3]; different-pig (inter-individual) group, n = 3, 8 h Franz diffusion, read-out: mean Papp before thickness normalization) [×10⁻⁶ cm/s] | Papp at 8 h, 1008 μg/mL ([3]; same-pig (intra-individual) group, n = 3, 8 h Franz diffusion, read-out: mean Papp before thickness normalization) [×10⁻⁶ cm/s] | decrease of CV of Papp by normalization ([7]; different-pig group) [%] | decrease of CV of Papp by normalization ([7]; same-pig group) [%] |
| --- | --- | --- | --- | --- | --- | --- | --- | --- | --- | --- | --- | --- | --- | --- |
| O=C([O-])c1ccccc1-c1c2ccc(=O)cc-2oc2cc([O-])ccc12.[Na+].[Na+] [Flu-Na, Fluorescein sodium salt] | precipitation observed | paradoxical decrease | general trend of increasing Papp values | lower | 7.33 ± 1.6 | 5.28 ± 0.18 | −0.67 to −1.52 | progressively more negative | – | – | – | – | – | – |
| O=C1OC2(c3ccc(O)cc3Oc3cc(O)ccc32)c2ccccc21 [fluorescein] | – | – | – | – | – | – | – | – | approximately 2.78 | −0.08 | – | – | – | – |
| COc1ccc2[nH]cc(CCNC(C)=O)c2c1 [melatonin, Melatonin] | – | – | – | – | 10.5 ± 0.42 | 10 ± 0.78 | – | – | – | – | 14.6 ± 1.42 | 14.1 ± 3.47 | 5.7 | 16.8 |
